This assay has as its system mammalian cell viability, cytotoxicity counter-screen. In words: mammalian cell cytotoxicity, dose response, cytotoxicity control for M. tuberculosis inhibitor project (AID 435019).

As usually defined, the CC50 is the concentration at which the toxic effect on the cells reaches its halfway point.

With `C[CH2][Hg][S]c1ccccc1C(=O)O`, the CC50 was 3.56 µM. For the compound `CN(C)c1ccnc2c[cH-]cc12.[Fe].c1ccc(-[c-]2[c-](-c3ccccc3)[c-](-c3ccccc3)[c-](-c3ccccc3)[c-]2-c2ccccc2)cc1` (configuration not stated), the CC50 is 11.8 µM.

The record behind these values is PubChem BioAssay AID435019 (Southern Research Specialized Biocontainment Screening …, 2010).
